In patent US20220117938A1, “COMBINATON THERAPY WITH A DON PRODRUG AND AN IMMUNE CHECKPOINT INHIBITOR” (DRACEN PHARMACEUTICALS, INC., priority 2019, published 2022):

Tested on: Cells
Test: Cell viability, CTG luminescence, 72 h (Example 7, Experiment 1)
Assay type: cell-based
Description: Cells were cultured in the appropriate medium at 37° C. and 5% CO2 atmosphere. Cells were harvested by trypsinization, spun at 800 rpm for 5 min and resuspended in medium. The cell concentration was adjusted with medium and seeded at a cell density of 3000 cells in 90 μL per well in 96-well plates, and incubated overnight at 37° C. and 5% CO2. After 24 hours, the 1 mM test compound (either Compound 1 or DON) was successively diluted into 7 concentrations according to a three-fold gradient respectively, and 10 μl/well drug was added. The final concentrations were 100 μM, 33.33 μM, 11.11 μM, 3.7 μM, 1.24 μM, 0.41 μM, 0.14 μM, and 0.046 μM. The 100 μM Positive Control drug was successively diluted in 7 concentrations according to a three-fold gradient, and 10 μl/well drug was added. The final concentrations were 10 μM, 3.333 μM, 1.111 μM, 0.37 μM, 0.124 μM, 0.041 μM, 0.014 μM and 0.0046 μM. Cells were incubated for 72 h at 37° C. and 5% CO2. 100 μL CTG reagent was then added to each well. Plates were shaken for 2 min and placed 10 min at room temperature. Luminescence was recorded on Perkin Elmer Envision 2104 Multilabel Reader. IC50's were obtained by fitting curve using GraphPad Prism5 software. In all cases the treatment time was 72 h.

[1] = Homo sapiens, BT-474, 72 h, BT-474
[2] = Homo sapiens, BT-549, 72 h, BT-549
[3] = Homo sapiens, CAPAN-1, 72 h, Capan-1
[4] = Homo sapiens, HCC1395, 72 h, HCC1395
[5] = Homo sapiens, HCC1806, 72 h, HCC1806
[6] = Homo sapiens, HCC1937, 72 h, HCC1937
[7] = Homo sapiens, HCC1954, 72 h, HCC1954
[8] = Homo sapiens, HGC-27, 72 h, HGC-27
[9] = Homo sapiens, HL-60, 72 h, HL60
[10] = Homo sapiens, Huh-7, 72 h, HuH-7
[11] = Homo sapiens, KARPAS-299, 72 h, KARPAS-299
[12] = Homo sapiens, KATO III, KATO-III
[13] = Homo sapiens, LN-18, 72 h, LN-18
[14] = Homo sapiens, MDA-MB-231, 72 h, MDA-MB-231
[15] = Homo sapiens, MDA-MB-361, 72 h, MDA-MB-361
[16] = Homo sapiens, MKN-45, 72 h, MKN-45
[17] = Homo sapiens, MOLT-4, 72 h, MOLT-4
[18] = Homo sapiens, NCI-H23, 72 h, NCI-H23
[19] = Homo sapiens, NCI-H226, 72 h, NCI-H226
[20] = Homo sapiens, NCI-H358, 72 h, NCI-H358
[21] = Homo sapiens, NCI-H661, 72 h, NCI-H661
[22] = Homo sapiens, NCI-H929, 72 h, NCI-H929
[23] = Homo sapiens, NCI-H1299, 72 h, NCI-H1299
[24] = Homo sapiens, NCI-H1650, 72 h, NCI-H1650
[25] = Homo sapiens, OVCAR-3, 72 h, OVCAR-3
[26] = Homo sapiens, RPMI-7951, 72 h, RPMI-7951
[27] = Homo sapiens, SK-MES-1, 72 h, SK-MES-1
[28] = Homo sapiens, SNB-19, 72 h, SNB-19
[29] = Homo sapiens, SNU-449, 72 h, SNU-449
[30] = Homo sapiens, SW480, 72 h, SW480
[31] = Homo sapiens, U-937, 72 h, U-937
[32] = Homo sapiens, ZR-75-1, 72 h, ZR-75-1
[33] = Homo sapiens, ZR-75-30, 72 h, ZR-75-30

How did the IC50 (AGS) turn out when CC(=O)N[C@@H](Cc1c[nH]c2ccccc12)C(=O)N[C@@H](CCC(=O)C=[N+]=[N-])C(=O)OC(C)C [Compound 1, Isopropyl (S)-2-((S)-2-acetamido-3-(1H-indol-3-yl)propanamido)-6-diazo-5-oxohexanoate] was run?
Its IC50 is 19.9 µM.

What about the IC50 (C3A) of the same molecule?
The IC50 was 8.39 µM.

And the IC50 (Homo sapiens, 143B)?
Its IC50 is 2.44 µM.

And the IC50 (Homo sapiens, 769-P)?
The IC50 was 2.08 µM.

What about the IC50 [1] of the same molecule?
Its IC50 is 9.8 µM.

What about the IC50 [2] of the same molecule?
Its IC50 is 30.8 µM.

What about the IC50 [3] of the same molecule?
The IC50 was 29.3 µM.

What about the IC50 (Homo sapiens, Daudi) of the same molecule?
The IC50 was 1.07 µM.

What about the IC50 [4] of the same molecule?
Its IC50 is 59.8 µM.

And the IC50 [5]?
Its IC50 is 3.86 µM.

What about the IC50 [6] of the same molecule?
Its IC50 is 156 µM.

And the IC50 [7]?
The IC50 was 3.33 µM.

And the IC50 [8]?
The IC50 was 13.3 µM.

And the IC50 [9]?
The IC50 was 2.03 µM.

And the IC50 [10]?
Its IC50 is 1.27 µM.

What about the IC50 (Homo sapiens, Jurkat) of the same molecule?
The IC50 was 0.656 µM.

And the IC50 [11]?
The IC50 was 0.636 µM.

And the IC50 [12]?
Its IC50 is 10.7 µM.

What about the IC50 [13] of the same molecule?
Its IC50 is 4.15 µM.

What about the IC50 [14] of the same molecule?
Its IC50 is 2.88 µM.

What about the IC50 [15] of the same molecule?
Its IC50 is 117 µM.

And the IC50 (Homo sapiens, MDA-MB-435S)?
Its IC50 is 45.4 µM.

And the IC50 [16]?
Its IC50 is 1.65 µM.

And the IC50 [17]?
Its IC50 is 3.03 µM.

What about the IC50 (Homo sapiens, Malme-3M) of the same molecule?
The IC50 was 19.9 µM.

What about the IC50 [18] of the same molecule?
Its IC50 is 3.53 µM.

What about the IC50 [19] of the same molecule?
The IC50 was 14.5 µM.

What about the IC50 (Homo sapiens, NCI-H322M) of the same molecule?
Its IC50 is 49.1 µM.

What about the IC50 [20] of the same molecule?
Its IC50 is 9.61 µM.

And the IC50 [21]?
Its IC50 is 131 µM.

What about the IC50 [22] of the same molecule?
The IC50 was 13.8 µM.

What about the IC50 [23] of the same molecule?
The IC50 was 9.2 µM.

What about the IC50 [24] of the same molecule?
Its IC50 is 6.61 µM.

What about the IC50 [25] of the same molecule?
Its IC50 is 34.1 µM.

What about the IC50 [26] of the same molecule?
Its IC50 is 0.894 µM.

What about the IC50 (Homo sapiens, Raji) of the same molecule?
Its IC50 is 3.13 µM.

And the IC50 (Homo sapiens, SH-SY5Y)?
The IC50 was 9.1 µM.

And the IC50 [27]?
Its IC50 is 71.5 µM.

What about the IC50 [28] of the same molecule?
Its IC50 is 3.21 µM.

What about the IC50 [29] of the same molecule?
The IC50 was 38.6 µM.

What about the IC50 [30] of the same molecule?
The IC50 was 88.1 µM.

What about the IC50 (Homo sapiens, T98G) of the same molecule?
The IC50 was 3.39 µM.

What about the IC50 [31] of the same molecule?
The IC50 was 0.811 µM.

What about the IC50 [32] of the same molecule?
Its IC50 is 137 µM.

What about the IC50 [33] of the same molecule?
The IC50 was 282 µM.

And the IC50 (NAMALWA)?
Its IC50 is 1.05 µM.

And the IC50 (RKO)?
The IC50 was 3.64 µM.

And the IC50 (T84)?
The IC50 was 125 µM.

And the IC50 (TT)?
Its IC50 is 77.1 µM.

And the IC50 (U266B1)?
Its IC50 is 0.451 µM.

For [N-]=[N+]=CC(=O)CC[C@H](N)C(=O)O [DON, 6-Diazo-5-oxo-L-norleucine, reference compound], which IC50 (AGS) is on record?
The IC50 was 13.8 µM.

And the IC50 (C3A)?
Its IC50 is 2.4 µM.

And the IC50 (Homo sapiens, 143B)?
The IC50 was 1.06 µM.

And the IC50 (Homo sapiens, 769-P)?
Its IC50 is 1.85 µM.

And the IC50 [1]?
The IC50 was 15.1 µM.

And the IC50 [2]?
The IC50 was 5.82 µM.

What about the IC50 [3] of the same molecule?
Its IC50 is 67.5 µM.

What about the IC50 (Homo sapiens, Daudi) of the same molecule?
The IC50 was 0.388 µM.

What about the IC50 [4] of the same molecule?
The IC50 was 32.3 µM.

What about the IC50 [5] of the same molecule?
Its IC50 is 0.72 µM.

What about the IC50 [6] of the same molecule?
The IC50 was 156 µM.

What about the IC50 [7] of the same molecule?
The IC50 was 0.951 µM.

What about the IC50 [8] of the same molecule?
The IC50 was 10 µM.

What about the IC50 [9] of the same molecule?
The IC50 was 3.61 µM.

What about the IC50 [10] of the same molecule?
The IC50 was 5.94 µM.

What about the IC50 (Homo sapiens, Jurkat) of the same molecule?
Its IC50 is 0.368 µM.

And the IC50 [11]?
The IC50 was 0.309 µM.

And the IC50 [12]?
Its IC50 is 2.96 µM.

And the IC50 [13]?
Its IC50 is 2.71 µM.

What about the IC50 [14] of the same molecule?
The IC50 was 1.78 µM.

What about the IC50 [15] of the same molecule?
Its IC50 is 235 µM.

And the IC50 (Homo sapiens, MDA-MB-435S)?
The IC50 was 64.4 µM.

What about the IC50 [16] of the same molecule?
Its IC50 is 7.52 µM.

What about the IC50 [17] of the same molecule?
The IC50 was 2.38 µM.

What about the IC50 (Homo sapiens, Malme-3M) of the same molecule?
The IC50 was 36.6 µM.

And the IC50 [18]?
Its IC50 is 1.66 µM.

What about the IC50 [19] of the same molecule?
Its IC50 is 1.87 µM.

What about the IC50 (Homo sapiens, NCI-H322M) of the same molecule?
Its IC50 is 4.78 µM.

And the IC50 [20]?
Its IC50 is 0.974 µM.

And the IC50 [21]?
Its IC50 is 70.6 µM.

What about the IC50 [22] of the same molecule?
The IC50 was 11.8 µM.

What about the IC50 [23] of the same molecule?
Its IC50 is 1.82 µM.

What about the IC50 [24] of the same molecule?
The IC50 was 1.89 µM.

And the IC50 [25]?
The IC50 was 31 µM.

And the IC50 [26]?
Its IC50 is 3.47 µM.

And the IC50 (Homo sapiens, Raji)?
Its IC50 is 2.04 µM.

What about the IC50 (Homo sapiens, SH-SY5Y) of the same molecule?
Its IC50 is 4.71 µM.

And the IC50 [27]?
Its IC50 is 145 µM.

And the IC50 [28]?
The IC50 was 2.03 µM.

What about the IC50 [29] of the same molecule?
The IC50 was 2.18 µM.

And the IC50 [30]?
Its IC50 is 100 µM.

And the IC50 (Homo sapiens, T98G)?
Its IC50 is 1.38 µM.

And the IC50 [31]?
Its IC50 is 0.566 µM.

And the IC50 [32]?
Its IC50 is 101 µM.

And the IC50 [33]?
Its IC50 is 982 µM.

What about the IC50 (NAMALWA) of the same molecule?
The IC50 was 0.333 µM.

What about the IC50 (RKO) of the same molecule?
The IC50 was 3.22 µM.

And the IC50 (T84)?
The IC50 was 100 µM.

And the IC50 (TT)?
Its IC50 is 42.9 µM.

What about the IC50 (U266B1) of the same molecule?
The IC50 was 0.413 µM.
